According to US10787452B2 (Vertex Pharmaceuticals Incorporated, priority 2012, dated 2020):

System: HCT116 colorectal cancer cells
Assay: Cisplatin sensitization assay (96 h cell viability MTS);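 further: compound concentration needed to lower the Cisplatin-alone IC50 by a set fold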
Type: cell-based
Details: 96 h MTS, compound plus Cisplatin
Summary of the method: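 Viability is measured with MTS reagent, added after 96 h and developed for 1 h at 37° C. Beforehand, cells receive compound and cisplatin simultaneously in a concentration matrix of 2-fold serial dilutions starting at 10 μM final.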

## CN1CCC[C@@H]1C(=O)N1CCN(c2c(F)cncc2NC(=O)c2c(N)nn3cc(F)cnc23)CC1 [I-N-181, (R)-2-amino-6-fluoro-N-(5-fluoro-4-(4-(1-methylpyrrolidine-2-carbonyl)piperazin-1-yl)pyridin-3-yl)pyrazolo[1,5-a]pyrimidine-3-carboxamide]
  Cisplatin Sensitization Assay: +++ (Compounds with a Cisplatin sensitization value of <0.02 μM are marked with “+++.”)

## Nc1nn2cc(F)cnc2c1C(=O)Nc1cncc(F)c1N1CCN2C(=O)CC[C@@H]2C1 [I-N-182, (R)-2-amino-6-fluoro-N-(5-fluoro-4-(6-oxohexahydropyrrolo[1,2-a]pyrazin-2(1H)-yl)pyridin-3-yl)pyrazolo[1,5-a]pyrimidine-3-carboxamide]
  Cisplatin Sensitization Assay: ++ (Compounds with a Cisplatin sensitization value >0.02 μM but <0.2 μM are marked with “++.”)

## CN1CCOC2(CCN(c3ccncc3NC(=O)c3c(N)nn4cc(F)cnc34)CC2)C1 [I-N-183, 2-amino-6-fluoro-N-(4-(4-methyl-1-oxa-4,9-diazaspiro[5.5]undecan-9-yl)pyridin-3-yl)pyrazolo[1,5-a]pyrimidine-3-carboxamide]
  Cisplatin Sensitization Assay: +++ (Compounds with a Cisplatin sensitization value of <0.02 μM are marked with “+++.”)

## Nc1nn2cc(F)cnc2c1C(=O)Nc1cncc(F)c1N1CCC(c2nccs2)CC1 [I-N-184, 2-amino-6-fluoro-N-(5-fluoro-4-(4-(thiazol-2-yl)piperidin-1-yl)pyridin-3-yl)pyrazolo[1,5-a]pyrimidine-3-carboxamide]
  Cisplatin Sensitization Assay: ++ (Compounds with a Cisplatin sensitization value >0.02 μM but <0.2 μM are marked with “++.”)

## CCN1CCCC1C(=O)N1CCN(c2c(F)cncc2NC(=O)c2c(N)nn3cc(F)cnc23)CC1 (centres unmarked) [I-N-185, 2-amino-N-(4-(4-(1-ethylpyrrolidine-2-carbonyl)piperazin-1-yl)-5-fluoropyridin-3-yl)-6-fluoropyrazolo[1,5-a]pyrimidine-3-carboxamide]
  Cisplatin Sensitization Assay: ++ (Compounds with a Cisplatin sensitization value >0.02 μM but <0.2 μM are marked with “++.”)

## Nc1nn2cc(F)cnc2c1C(=O)Nc1cncc(F)c1N1CCN2C(=O)CC[C@@H]2C1 [I-N-186, (R)-2-amino-6-fluoro-N-(5-fluoro-4-(6-oxohexahydropyrrolo[1,2-a]pyrazin-2(1H)-yl)pyridin-3-yl)pyrazolo[1,5-a]pyrimidine-3-carboxamide]
  Cisplatin Sensitization Assay: +++ (Compounds with a Cisplatin sensitization value of <0.02 μM are marked with “+++.”)

## Nc1nn2cc(F)cnc2c1C(=O)Nc1cncc(F)c1N1CCN(C(=O)CN2CCCC2)CC1 [I-N-187, 2-amino-6-fluoro-N-(5-fluoro-4-(4-(2-(pyrrolidin-1-yl)acetyl)piperazin-1-yl)pyridin-3-yl)pyrazolo[1,5-a]pyrimidine-3-carboxamide]
  Cisplatin Sensitization Assay: +++ (Compounds with a Cisplatin sensitization value of <0.02 μM are marked with “+++.”)

## CN1CCC(S(=O)(=O)N2CCN(c3ccncc3NC(=O)c3c(N)nn4cc(F)cnc34)CC2)CC1 [I-N-188, 2-amino-6-fluoro-N-(4-(4-((1-methylpiperidin-4-yl)sulfonyl)piperazin-1-yl)pyridin-3-yl)pyrazolo[1,5-a]pyrimidine-3-carboxamide]
  Cisplatin Sensitization Assay: +++ (Compounds with a Cisplatin sensitization value of <0.02 μM are marked with “+++.”)

## Nc1nn2cc(F)cnc2c1C(=O)Nc1cncc(F)c1N1CCC(N2CCOCC2)CC1 [I-N-189, 2-amino-6-fluoro-N-(5-fluoro-4-(4-morpholinopiperidin-1-yl)pyridin-3-yl)pyrazolo[1,5-a]pyrimidine-3-carboxamide]
  Cisplatin Sensitization Assay: +++ (Compounds with a Cisplatin sensitization value of <0.02 μM are marked with “+++.”)

## CS(=O)(=O)C1CCN(c2ccncc2NC(=O)c2c(N)nn3cc(F)cnc23)CC1 [I-N-190, 2-amino-6-fluoro-N-(4-(4-(methylsulfonyl)piperidin-1-yl)pyridin-3-yl)pyrazolo[1,5-a]pyrimidine-3-carboxamide]
  Cisplatin Sensitization Assay: +++ (Compounds with a Cisplatin sensitization value of <0.02 μM are marked with “+++.”)

## CN1CCN(C(=O)C2CCN(c3c(F)cncc3NC(=O)c3c(N)nn4cc(F)cnc34)C2)CC1 (centres unmarked) [I-N-191, 2-amino-6-fluoro-N-(5-fluoro-4-(3-(4-methylpiperazine-1-carbonyl)pyrrolidin-1-yl)pyridin-3-yl)pyrazolo[1,5-a]pyrimidine-3-carboxamide]
  Cisplatin Sensitization Assay: + (Compounds with a Cisplatin sensitization value >0.2 μM but <5 μM are marked with “+.”)

## CN1CCN(CC2CCN(c3c(F)cncc3NC(=O)c3c(N)nn4cc(C5(C#N)CC5)cnc34)CC2)CC1 [I-N-192, 2-amino-6-(1-cyanocyclopropyl)-N-(5-fluoro-4-(4-((4-methylpiperazin-1-yl)methyl)piperidin-1-yl)pyridin-3-yl)pyrazolo[1,5-a]pyrimidine-3-carboxamide]
  Cisplatin Sensitization Assay: +++ (Compounds with a Cisplatin sensitization value of <0.02 μM are marked with “+++.”)

## CN1CCN(CC2CCN(c3c(F)cncc3NC(=O)c3c(N)nn4cc(F)cnc34)CC2)C(=O)C1 [I-N-193, 2-amino-6-fluoro-N-(5-fluoro-4-(4-((4-methyl-2-oxopiperazin-1-yl)methyl)piperidin-1-yl)pyridin-3-yl)pyrazolo[1,5-a]pyrimidine-3-carboxamide]
  Cisplatin Sensitization Assay: +++ (Compounds with a Cisplatin sensitization value of <0.02 μM are marked with “+++.”)

## CN1CC(C(=O)N2CCN(c3c(F)cncc3NC(=O)c3c(N)nn4cc(F)cnc34)CC2)C1 [I-N-194]
  Cisplatin Sensitization Assay: +++ (Compounds with a Cisplatin sensitization value of <0.02 μM are marked with “+++.”)

## Nc1nn2cc(F)cnc2c1C(=O)Nc1cnccc1N1CCN(S(=O)(=O)C2COC2)CC1 [I-N-195, 2-amino-6-fluoro-N-(4-(4-(oxetan-3-ylsulfonyl)piperazin-1-yl)pyridin-3-yl)pyrazolo[1,5-a]pyrimidine-3-carboxamide]
  Cisplatin Sensitization Assay: +++ (Compounds with a Cisplatin sensitization value of <0.02 μM are marked with “+++.”)

## Nc1nn2cc(F)cnc2c1C(=O)Nc1cnccc1N1CCC(S(=O)(=O)N2CCN3CCC2CC3)CC1 [I-N-196, N-(4-(4-(1,4-diazabicyclo[3.2.2]nonan-4-ylsulfonyl)piperidin-1-yl)pyridin-3-yl)-2-amino-6-fluoropyrazolo[1,5-a]pyrimidine-3-carboxamide]
  Cisplatin Sensitization Assay: +++ (Compounds with a Cisplatin sensitization value of <0.02 μM are marked with “+++.”)

## Nc1nn2cc(F)cnc2c1C(=O)Nc1cnccc1N1CCC(CN2CCC(F)(F)C2)CC1 [I-N-197, 2-amino-N-(4-(4-((3,3-difluoropyrrolidin-1-yl)methyl)piperidin-1-yl)pyridin-3-yl)-6-fluoropyrazolo[1,5-a]pyrimidine-3-carboxamide]
  Cisplatin Sensitization Assay: +++ (Compounds with a Cisplatin sensitization value of <0.02 μM are marked with “+++.”)

## CN1CCC[C@H]1C(=O)N1CCN(c2ccncc2NC(=O)c2c(N)nn3cc(F)cnc23)CC1 [I-N-198, (S)-2-amino-6-fluoro-N-(4-(4-(1-methylpyrrolidine-2-carbonyl)piperazin-1-yl)pyridin-3-yl)pyrazolo[1,5-a]pyrimidine-3-carboxamide]
  Cisplatin Sensitization Assay: ++ (Compounds with a Cisplatin sensitization value >0.02 μM but <0.2 μM are marked with “++.”)

## CN1CCC[C@@H]1C(=O)N1CCN(c2ccncc2NC(=O)c2c(N)nn3cc(F)cnc23)CC1 [I-N-199, (R)-2-amino-6-fluoro-N-(4-(4-(1-methylpyrrolidine-2-carbonyl)piperazin-1-yl)pyridin-3-yl)pyrazolo[1,5-a]pyrimidine-3-carboxamide]
  Cisplatin Sensitization Assay: +++ (Compounds with a Cisplatin sensitization value of <0.02 μM are marked with “+++.”)

## Nc1nn2cc(F)cnc2c1C(=O)Nc1cnccc1N1CCC(S(=O)(=O)C2COC2)CC1 [I-N-200, 2-amino-6-fluoro-N-(4-(4-(oxetan-3-ylsulfonyl)piperidin-1-yl)pyridin-3-yl)pyrazolo[1,5-a]pyrimidine-3-carboxamide]
  Cisplatin Sensitization Assay: +++ (Compounds with a Cisplatin sensitization value of <0.02 μM are marked with “+++.”)

## Nc1nn2cc(F)cnc2c1C(=O)Nc1cncc(F)c1N1CCN(S(=O)(=O)C2COC2)CC1 [I-N-201]
  Cisplatin Sensitization Assay: +++ (Compounds with a Cisplatin sensitization value of <0.02 μM are marked with “+++.”)

## Nc1nn2cc(F)cnc2c1C(=O)Nc1cnccc1-n1ccnc1C1CC1 [I-N-202, 2-amino-N-(4-(2-cyclopropyl-1H-imidazol-1-yl)pyridin-3-yl)-6-fluoropyrazolo[1,5-a]pyrimidine-3-carboxamide]
  Cisplatin Sensitization Assay: +++ (Compounds with a Cisplatin sensitization value of <0.02 μM are marked with “+++.”)

## Nc1nn2cc(F)cnc2c1C(=O)Nc1cncc(F)c1N1CCN(C(=O)C2CC3CCCCN3C2)CC1 (centres unmarked) [I-N-203, 2-amino-6-fluoro-N-(5-fluoro-4-(4-(octahydroindolizine-2-carbonyl)piperazin-1-yl)pyridin-3-yl)pyrazolo[1,5-a]pyrimidine-3-carboxamide]
  Cisplatin Sensitization Assay: +++ (Compounds with a Cisplatin sensitization value of <0.02 μM are marked with “+++.”)

## CC(C)N1CCCC1C(=O)N1CCN(c2c(F)cncc2NC(=O)c2c(N)nn3cc(F)cnc23)CC1 (centres unmarked) [I-N-205, 2-amino-6-fluoro-N-(5-fluoro-4-(4-(1-isopropylpyrrolidine-2-carbonyl)piperazin-1-yl)pyridin-3-yl)pyrazolo[1,5-a]pyrimidine-3-carboxamide]
  Cisplatin Sensitization Assay: ++ (Compounds with a Cisplatin sensitization value >0.02 μM but <0.2 μM are marked with “++.”)

## CC(C)N1CCC(C(=O)N2CCN(c3c(F)cncc3NC(=O)c3c(N)nn4cc(F)cnc34)CC2)C1 (centres unmarked) [I-N-206, 2-amino-6-fluoro-N-(5-fluoro-4-(4-(1-isopropylpyrrolidine-3-carbonyl)piperazin-1-yl)pyridin-3-yl)pyrazolo[1,5-a]pyrimidine-3-carboxamide]
  Cisplatin Sensitization Assay: +++ (Compounds with a Cisplatin sensitization value of <0.02 μM are marked with “+++.”)

## COCCS(=O)(=O)C1CCN(c2ccncc2NC(=O)c2c(N)nn3cc(F)cnc23)CC1 [I-N-208, 2-amino-6-fluoro-N-(4-(4-((2-methoxyethyl)sulfonyl)piperidin-1-yl)pyridin-3-yl)pyrazolo[1,5-a]pyrimidine-3-carboxamide]
  Cisplatin Sensitization Assay: +++ (Compounds with a Cisplatin sensitization value of <0.02 μM are marked with “+++.”)
